Measurements from patent publication US12687495B2, “Single cell selection and isolation” (ERASMUS UNIVERSITY MEDICAL CENTER ROTTERDAM, priority 2019, dated 2026).

Assays:
MCF10A cells = assay: Uncaging efficiency of caged rhodamine with or without thioxanthone in cells; format: cell-based; details: for photoactivation / fluorescent response of irradiated cells: cells incubated with 15 uM, 405 nm exposure (1000 J/cm^2)
Procedure: FIGS. 11A and 11B illustrate images of cells incubated with a phototagging agent, with and without photosensitizer, respectively.
For example, uncaging efficiency is determined by a relative decrease in the energy or intensity of light needed to uncage the phototagging agent. For example, a wavelength at which the amount of energy or intensity is compared is more than four hundred nanometer, e.g. 405 nm as shown in the comparative example of FIGS. 11A and 11B.
The comparison is carried out by directly measuring uncaging efficiency in biological samples. The described experiment was conducted in mammalian cancer cell lines but can be generalized without loss of relevance to other mammalian cell types. The phototagging agent (caged rhodamine with thioxanthone) at 15 uM was incubated with MCF10A cells for 15 min. The caged moiety was then removed by irradiation with 405 nm CW light at 500-1500 J/cm^2. […] The uncaged rhodamine in the cells was imaged by 532 nm excitation (200 mW/0.35 cm^2).

cells = assay: Cell permeability assay: fluorescence and retention of activated dye in phototagged cells; format: cell-based; details: 15 uM for 15 min, PBS rinse, 405 nm light (1000 J/cm^2), 532 nm excitation; FIG. 10B; listed as phototagging agent
From the text: The unreacted agent was then rinsed away with PBS (phosphate buffered Saline). […] After activation, fluorescence of photoactivated uncaged rhodamine was observed and imaged by 532 nm excitation (200 mW/0.35 cm^2).

[1] = UV-Vis absorption spectrum; format: physicochemical
From the text: Without wishing to be bound by theory, the chemical compound and the uncaging schematically proceeds as illustrated in FIG. 12. In a preferred embodiment, the photosensitizer moiety absorbs light of a wavelength from 360 nm-420 nm while the caged fluorophore moiety is essentially insensitive to light of a wavelength >400 nm. This typically means that the absorption coefficient of the photosensitizer as a wavelength of higher than 400 nm is more than 10 times, preferably more than 40 times as high as the absorption coefficient of the caged fluorophore moiety at the same wavelength.

COc1cc(COC(=O)N2CCCc3cc4c(cc32)Oc2cc3c(cc2C42OC(=O)c4cc(C(=O)Nc5ccc6sc7ccccc7c(=O)c6c5)ccc42)CCCN3C(=O)OCc2cc(OC)c(OC)cc2[N+](=O)[O-])c([N+](=O)[O-])cc1OC [chemical compound A]
light energy at which the caged moiety was removed (uncaging) (MCF10A cells; 405 nm CW light, 15 uM agent incubated with MCF10A cells for 15 min, uncaged rhodamine imaged by 532 nm excitation): 500-1500 J/cm^2
uncaging efficiency compared to corresponding caged rhodamine without photosensitizer thioxanthone (MCF10A cells; FIG. 10A, 405 nm): more than ten
photoactivation / fluorescent response of irradiated cells (MCF10A cells; listed as caged rhodamine conjugated with thioxanthone): a fluorescent response F could be measured
photoactivation / fluorescent response of irradiated cells (MCF10A cells; listed as phototagging agent): photoactivated
time the uncaged phototagging agent stays inside cells (photoactivated fluorescence observed) (cells): seven
absorption >400 nm [1]: has absorption >400 nm
